Results published in patent US20080234173A1, “PRESERVATIVE COMPOSITIONS” (TAKASAGO INTERNATIONAL CORPORATION, priority 2007, published 2008).
Entries after “also recorded” stand apart in the source; their conditions may differ.

Tested on: Pseudomonas aeruginosa ATCC 15442
Test: Anti-Bacterial Test Method: log reduction of bacterial colonies after 3 days exposure in water
Type: cell-based
Description: Materials were dissolved in ethanol (or deionized water in the case of water soluble preservatives) to a concentration of 100 mg/ml. 30 μl of this solution added to 3 ml deionized water gave a final concentration of 0.1%. (If necessary, solutions are sonicated for 15 minutes and allowed to equilibrate back to ambient temperature.) Bacterial cultures were added to this solution, mixed on a vortex mixer and a dock started. After 3 days, an aliquot is sampled and added to a D/E (Dey/Engley) neutralization broth (marketed by Becton and Dickinson Cγ) and plated onto solid media. Bacterial colonies are counted after overnight incubation. The selected indicator microorganism was Pseudomonas aeruginosa ATCC 15442.
All results are quoted as the reduction in activity expressed as a logarithm to the base 10 measured after 3 days incubation and compared with the inocculum unless otherwise noted.
All percentages are quoted as weight per unit volume (e.g. g/ml) unless indicated otherwise.

## OCc1ccccc1 [Benzyl alcohol]
0.025% Benzyl alcohol alone
  Log Reduction after 3 days: 0.2 log

## Cl/C=C\C[N+]12CN3CN(CN(C3)C1)C2.[Cl-] [Dowicil 200, cis-1-3-chloroallyl-3,5,7-triaza-1-azoniaadamantane chloride]
0.05% Dowicil 200 alone
  log reduction, compared with the ethanol solvent control: 1.3 log
0.05% Dowicil (line of Test Example 14 without fragrance)
  log reduction after 3 days vs Inocculum: 0.7 log

## CCOC(=O)c1ccccc1C(=O)OCC [diethyl phthalate]
0.1% or 0.2% diethyl phthalate added to fragrance ingredient + preservative mixture
  effect of addition of diethyl phthalate on antibacterial / preservative efficacy: detrimental to antibacterial efficacy; also recorded: detrimental to preservative efficacy

## OCCOc1ccccc1 [phenoxyethanol, 2-Phenoxyethanol]
0.1% phenoxyethanol alone
  log reduction, compared with the ethanol solvent control, after 3 days: 0.4 log
